Laboratory results reported in US6605614B2, “[1,8] naphthyridine derivatives having antiviral activity” (BioChem Pharma Inc., priority 1999, dated 2003).
Where a name gives a salt, the structure may show the parent alone.

Columns and labels:
[1] = test system: BVDV(NADL); experiment: WST-1 based BVDV anti-viral assay (CPE reduction in infected MDBK cells); format: cell-based; conditions: Bovine viral diarrhea virus isolates and strains, 96 h, MDBK cells infected with cytopathic BVDV (NADL), MOI 0.006 to 0.01, 4 days incubation, WST-1 readout, read-out: BVDV antiviral effect IC50
Method: Currently, the WST-1 based BVDV assay, is being used as surrogate to evaluate potential anti-HCV agents since BVDV (bovine viral diarrhea virus) shares functional homology with the HCV.
To determine the anti-viral effect of the compounds, MDBK cells were infected with the cytopathic strain of BVDV(NADL) using a 0.006 to 0.01 MOI. 3000 cells were then seeded in each well of a 96-well plate containing the compound. The final volume was 200 μl of media per wells. […] Cell culture was then incubated for another 2 hrs at 37° C., after which 20 μl of 10% SDS was added to each well in order to inactivate the virus and the OD at 450 nm was determined using a microplate reader (Dynatech MR5000). […]

[2] = Compound toxicity, WST-1, non-infected MDBK cells; format: cell-based; conditions: bovine, 4 days incubation, WST-1 readout
Method: To determine the anti-viral effect of the compounds, MDBK cells were infected with the cytopathic strain of BVDV(NADL) using a 0.006 to 0.01 MOI. 3000 cells were then seeded in each well of a 96-well plate containing the compound. The final volume was 200 μl of media per wells. […] Cell culture was then incubated for another 2 hrs at 37° C., after which 20 μl of 10% SDS was added to each well in order to inactivate the virus and the OD at 450 nm was determined using a microplate reader (Dynatech MR5000).
In parallel, the same experiment was performed using non-infected cells to determine the compound toxicity. […]

Row | SMILES | IC50 [1] [µM] | CC50 at 4 days [2] [µM]
1 | O=C(NCc1ccccc1)c1ccc2cccnc2n1 [Compound #2, [1,8] naphthyridine-2-carboxylic acid benzylamide] | < 76 | > 76
2 | COc1ccc(CNC(=O)c2ccc3cccnc3n2)cc1 [Compound #3, [1,8] naphthyridine-2-carboxylic acid 4-methoxy-benzylamide] | ~1.7 | > 68.2
3 | COc1cccc(CNC(=O)c2ccc3cccnc3n2)c1 [Compound #4, [1,8] naphthyridine-2-carboxylic acid 3-methoxy-benzylamide] | ~6.8 | > 68.2
4 | COc1cc(OC)c(CNC(=O)c2ccc3cccnc3n2)c(OC)c1 [Compound #5, [1,8] naphthyridine-2-carboxylic acid 2,4,6-trimethoxy-benzylamide] | ~1.1 | > 56.6
5 | CC(C)Oc1ccccc1CNC(=O)c1ccc2cccnc2n1 [Compound #8, [1,8] naphthyridine-2-carboxylic acid 2-isopropoxy-benzylamide] | < 62.2 | > 62.2
6 | CC[C@@H](C)Oc1ccccc1CNC(=O)c1ccc2cccnc2n1 [Compound #10, (−)-[1,8] naphthyridine-2-carboxylic acid 2-sec-butoxy-benzylamide] | > 6 | > 6
7 | O=C(NCc1cccnc1)c1ccc2cccnc2n1 [Compound #12, [1,8] naphthyridine-2-carboxylic acid (pyridin-3-ylmethyl)-amide] | ~18.9 | > 75.7
8 | O=C(NCc1ccccn1)c1ccc2cccnc2n1 [Compound #13, [1,8] naphthyridine-2-carboxylic acid (pyridin-2-ylmethyl)-amide] |  | > 75.7
9 | O=C(Nc1ccccn1)c1ccc2cccnc2n1 [Compound #15, [1,8] naphthyridine-2-carboxylic acid pyridin-2-ylamide] |  | > 79.9
10 | O=C(NCc1ccccc1F)c1ccc2cccnc2n1 [Compound #16, [1,8] naphthyridine-2-carboxylic acid 2-fluoro-benzylamide] | ~1.1 | > 71.1
11 | O=C(NCc1ccccc1Cl)c1ccc2cccnc2n1 [Compound #17, [1,8] naphthyridine-2-carboxylic acid 2-chloro-benzylamide] | ~3.6 | > 67.2
12 | O=C(Nc1cccc([N+](=O)[O-])c1)c1ccc2cccnc2n1 [Compound #19, [1,8] naphthyridine-2-carboxylic acid (3-nitrophenyl)-amide] | ~1.7 | > 68
13 | O=C(Nc1nccs1)c1ccc2cccnc2n1 [Compound #22, [1,8] naphthyridine-2-carboxylic acid thiazol-2-ylamide] |  | > 78
14 | O=C(Nc1nc2ccccc2s1)c1ccc2cccnc2n1 [Compound #23, [1,8] naphthyridine-2-carboxylic acid benzothiazol-2-ylamide] |  | > 6.5
15 | O=C(Nc1ccccc1F)c1ccc2cccnc2n1 [Compound #24, [1,8] naphthyridine-2-carboxylic acid (2-fluoro-phenyl)-amide] | ~7.5 | > 74.8
16 | COc1ccccc1CNC(=N)c1ccc2cccnc2n1 [Compound #27, N-(2-methoxy-benzyl)-[1,8]naphthyridine-2-carboxamidine trifluoroacetate] | ~0.33 | > 63.2
17 | O=C(Nc1ccccc1)c1ccc2cccnc2n1 [Compound #28, [1,8] naphthyridine-2-carboxylic acid phenyl-amide] |  | > 80.2
18 | O=C(Nc1cccnc1)c1ccc2cccnc2n1 [Compound #29, [1,8] naphthyridine-2-carboxylic acid pyridin-3-yl-amide] | ~3.2 | > 79.9
19 | O=C(Nc1cccc(C(F)(F)F)c1)c1ccc2cccnc2n1 [Compound #30, [1,8] naphthyridine-2-carboxylic acid (phenyl-3-trifluoromethyl)-amide] | ~0.6 | 6.3
20 | O=C(NCc1cccc(C(F)(F)F)c1)c1ccc2cccnc2n1 [Compound #31, [1,8] naphthyridine-2-carboxylic acid (phenylmethyl-3-trifluoromethyl)-amide] | ~3 | > 60.4
